Assay results from patent US20050119489A1, “4-Sulfide/sulfoxide/sulfonyl-1h-pyrazolyl derivative compounds, for use in diseases associated with the 5-ht2c receptor” (priority 2001, published 2005).
Where a name gives a salt, the structure may show the parent alone.

tested on: not given; conditions: not given

Structure (SMILES) | melting point [°C]
CCc1nn(C[C@H](C)N)c(CC)c1S(=O)(=O)c1ccc(N2CCCC(C)(C)C2=O)cc1.Cl | 131
CCc1nn(CCNC)c(CC)c1Sc1ccc(F)cc1.O=C(O)/C=C\C(=O)O | 95 to 97
CCc1nn(CC(C)(C)N)c(CC)c1Sc1ccc(F)cc1.O=C(O)/C=C\C(=O)O | 120 to 122
CCc1nn(C(C)CN)c(CC)c1Sc1ccc(F)cc1.O=C(O)/C=C\C(=O)O (stereo not drawn) | 162
Cc1nn(CCN)c(C)c1Sc1ccccc1 (as salt: HCl) [Example 2, 2-[3,5-dimethyl-4-(phenylsulfanyl)-1H-pyrazol-1-yl]ethylamine] | 185 to 188
CCc1nn(C(C)C(N)=O)c(CC)c1Sc1ccc(F)cc1 (stereo not drawn) (as salt: hydrochloride) | 167
CCc1nn(CCN)c(CC)c1Sc1nnnn1C (as salt: salt) [Example 204] | 148
CCc1nn(CCN)c(CC)c1Sc1nccc(C(F)(F)F)n1 (as salt: salt) [Example 205] | 154
CCc1nn(CCNC)c(CC)c1S(=O)(=O)c1ccc(N2C(=O)CC(C)(C)C2=O)cc1 [Example 160, 1-[4-({3,5-diethyl-1-[2-(methylamino)ethyl]-1H-pyrazol-4-yl}sulfonyl)phenyl]-3,3-dimethyl-2,5-pyrrolidinedione] | 84 to 86

biological target: T1, 5-HT2C receptor (Homo sapiens, UniProt P28335); conditions: cited from earlier work
T1 sequence (P28335 33-458): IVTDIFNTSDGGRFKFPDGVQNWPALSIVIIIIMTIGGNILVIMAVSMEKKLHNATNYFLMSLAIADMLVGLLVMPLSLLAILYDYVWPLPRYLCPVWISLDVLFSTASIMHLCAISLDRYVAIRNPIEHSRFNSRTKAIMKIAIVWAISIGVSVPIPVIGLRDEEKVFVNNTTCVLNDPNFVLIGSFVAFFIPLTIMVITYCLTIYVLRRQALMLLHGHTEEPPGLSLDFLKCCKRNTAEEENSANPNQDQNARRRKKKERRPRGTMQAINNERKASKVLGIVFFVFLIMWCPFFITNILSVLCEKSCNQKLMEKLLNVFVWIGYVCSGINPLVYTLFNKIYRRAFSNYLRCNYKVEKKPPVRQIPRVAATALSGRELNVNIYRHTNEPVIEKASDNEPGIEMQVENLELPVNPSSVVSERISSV

Structure (SMILES) | selectivity as 5-HT2C receptor antagonist
Cc1cc2c(cc1Cl)N(C(=O)Nc1ccc(Oc3cccnc3C)nc1)CC2 [SB-242084] | at least 100 fold

biological target: 5-HT2 receptors; conditions: cited from earlier work

Structure (SMILES) | pKi for the 5-HT2 receptors | selectivity for the 5-HT2 receptors over 5-HT, receptors
Cc1nc2sccn2c(=O)c1CCN1CCC(=C(c2ccc(F)cc2)c2ccc(F)cc2)CC1 [ritanserin] | 8.9 | 10,000 fold
